Values of other authors in the PKSmart pharmacokinetics tables (Seal et al. 2025).
Where a SMILES comes first, the peptide text is derived from it.

Experiment: Lombardo, Berellini, Obach 2018, Drug Metab Dispos 46:1466, doi 10.1124/dmd.118.082966
Conditions: human; for MRT / Vd / clearance / half-life: in vivo, iv; for fraction unbound: plasma

## CNC(=O)c1c(I)c(NC(C)=O)c(I)c(C(=O)O)c1I
  MRT: 1.2 h
  Vd: 0.17 L/kg
  clearance: 2.4 mL/min/kg
  half-life: 1.3 h

## CC(C)C1C(=O)NC(CCCNC(=N)N)C(=O)NCC(=O)NC(CC(=O)O)C(=O)NC(Cc2ccccc2)C(=O)N1C (stereo unspecified)
  MRT: 3.67 h
  Vd: 0.26 L/kg
  clearance: 1.18 mL/min/kg
  half-life: 3.6 h

## COc1ccccc1Oc1c(NS(=O)(=O)c2ccc(C(C)(C)C)cc2)nc(-c2ncccn2)nc1OCCO
  MRT: 2.3 h
  Vd: 0.29 L/kg
  clearance: 2.1 mL/min/kg
  half-life: 4.1 h
  fraction unbound: 0.037

## C[C@@H]([C@@](O)(Cn1cncn1)c1ccc(F)cc1F)S(C)(=O)=O
  MRT: 54 h
  Vd: 0.62 L/kg
  clearance: 0.19 mL/min/kg
  half-life: 49 h

## NC(CCC(=O)NC(Cc1ccc(O)c(O)c1)C(=O)O)C(=O)O (stereo unspecified)
  MRT: 0.74 h
  Vd: 0.21 L/kg
  clearance: 4.6 mL/min/kg
  half-life: 0.5 h

## CN[C@@H]1[C@@H](O)[C@@H](O[C@@H]2[C@@H](O)[C@H](O[C@H]3OC(CN)=CC[C@H]3N)[C@@H](N)C[C@H]2N)OC[C@]1(C)O
  MRT: 3.2 h
  Vd: 0.19 L/kg
  clearance: 1 mL/min/kg
  half-life: 2.4 h
  fraction unbound: 0.15

## CC[C@@H](C)N(C)C(=O)c1cc2ccccc2c(-c2ccccc2Cl)n1
  MRT: 5.4 h
  Vd: 1.7 L/kg
  clearance: 5.9 mL/min/kg
  half-life: 3.7 h

## Cc1c[nH]c2c(O)cc3c(c12)[C@H](CCl)CN3C(=O)c1cc2cc(NC(=O)Nc3ccc4[nH]c(C(=O)N5C[C@@H](CCl)c6c5cc(O)c5[nH]cc(C)c65)cc4c3)ccc2[nH]1
  MRT: 1.7 h
  Vd: 0.05 L/kg
  clearance: 0.5 mL/min/kg
  half-life: 1.6 h

## COc1ccc(CC(NC(=O)CC(C)(C)N)C(=O)NC(Cc2c[nH]cn2)C(=O)N[C@@H](CC2CCCCC2)[C@@H](O)[C@@H](O)CC(C)C)cc1 (stereo partly specified)
  MRT: 3.1 h
  Vd: 0.11 L/kg
  clearance: 0.45 mL/min/kg
  half-life: 1.72 h
  fraction unbound: 0.07

## CNC(=O)C(c1ccccc1)N1CCc2cc(OC)c(OC)cc2[C@@H]1CCc1ccc(C(F)(F)F)cc1 (stereo partly specified)
  MRT: 15.9 h
  Vd: 9.75 L/kg
  clearance: 10.2 mL/min/kg
  half-life: 34.3 h

## CN(C)CCCN1c2ccccc2Sc2ccccc21
  MRT: 9.6 h
  Vd: 8.1 L/kg
  clearance: 14 mL/min/kg
  half-life: 7.9 h
  fraction unbound: 0.11

## CCC[C@@H]1CC(C(=O)N[C@@H]([C@H]2O[C@H](SC)[C@H](O)[C@@H](O)[C@H]2O)[C@@H](C)O)N(C)C1 (stereo partly specified)
  MRT: 7.5 h
  Vd: 1 L/kg
  clearance: 2.1 mL/min/kg
  half-life: 5.6 h

## Cc1cc2c(OCC(O)CNC(C)C)cccc2[nH]1 (stereo unspecified)
  MRT: 6.21 h
  Vd: 2.17 L/kg
  clearance: 5.83 mL/min/kg
  half-life: 4.61 h
  fraction unbound: 0.51

## O=C(Nc1c(Cl)cncc1Cl)c1ccc(OC(F)F)c(OCC2CC2)c1
  fraction unbound: 0.01

## CC(O)C(CO)NC(=O)C1CSSCC(NC(=O)C(N)Cc2ccccc2)C(=O)NC(Cc2ccccc2)C(=O)NC(Cc2c[nH]c3ccccc23)C(=O)NC(CCCCN)C(=O)NC(C(C)O)C(=O)N1 (stereo unspecified)
  MRT: 1.3 h
  Vd: 0.19 L/kg
  clearance: 2.38 mL/min/kg
  half-life: 1.7 h
  fraction unbound: 0.35

## CC(c1ccccn1)c1c(CCN(C)C)sc2ccccc12 (stereo unspecified)
  MRT: 6.8 h
  Vd: 1.83 L/kg
  clearance: 5.31 mL/min/kg
  half-life: 9.1 h

## C[C@@H](O)C1C(=O)N2C(C(=O)O)=C(CN)S[C@H]12 (stereo partly specified)
  MRT: 0.5 h
  Vd: 0.23 L/kg
  clearance: 7.67 mL/min/kg
  half-life: 0.5 h

## COc1cc([S+](C)O)ccc1-c1nc2cnccc2[n-]1 (stereo unspecified)
  MRT: 1.3 h
  Vd: 1.67 L/kg
  clearance: 20.7 mL/min/kg
  half-life: 1.2 h
  fraction unbound: 0.48

## COc1ccc2cc1Oc1cc3c(cc1OC)CC[N+](C)(C)[C@H]3Cc1ccc(cc1)Oc1c(OC)c(OC)cc3c1[C@@H](C2)[N+](C)(C)CC3
  MRT: 5.6 h
  Vd: 0.4 L/kg
  clearance: 1.2 mL/min/kg
  half-life: 5.1 h
  fraction unbound: 0.65

## O=S(=O)(O)c1cc(O)ccc1O
  MRT: 2.41 h
  Vd: 0.12 L/kg
  clearance: 0.87 mL/min/kg
  half-life: 2.01 h

## N#Cc1c(N2C[C@@H]3NCCO[C@H]3C2)c(F)cc2c(=O)c(C(=O)O)cn(C3CC3)c12
  MRT: 4.11 h
  Vd: 1.42 L/kg
  clearance: 5.75 mL/min/kg
  half-life: 13.4 h
  fraction unbound: 0.75

## Cc1ccc2c(-c3ccccc3)nc(=O)n(C(C)C)c2c1
  MRT: 0.92 h
  Vd: 0.52 L/kg
  clearance: 9.45 mL/min/kg
  half-life: 1.27 h
  fraction unbound: 0.02

## C[C@H]1COc2c(N3CCN(C)CC3)c(F)c(N)c3c(=O)c(C(=O)O)cn1c23
  MRT: 18.3 h
  Vd: 2.42 L/kg
  clearance: 2.2 mL/min/kg
  half-life: 20.1 h
  fraction unbound: 0.82

## C[C@H]1COc2c(C3(N)CC3)c(F)cc3c(=O)c(C(=O)O)cn1c23
  MRT: 2.32 h
  Vd: 0.68 L/kg
  clearance: 4.87 mL/min/kg
  half-life: 2.1 h
  fraction unbound: 0.79

## C=CCOc1ccccc1OC[C@H](O)CNC(C)C
  MRT: 1.56 h
  Vd: 0.72 L/kg
  clearance: 7.7 mL/min/kg
  half-life: 1.09 h
  fraction unbound: 0.19

## CN(C)C[C@H](c1ccc(O)cc1)C1(O)CCCCC1
  MRT: 11.8 h
  Vd: 3.5 L/kg
  clearance: 4.9 mL/min/kg
  half-life: 8.4 h
  fraction unbound: 0.7

## CCn1cc(C(=O)O)c(=O)c2cnc(N3CCNCC3)nc21
  MRT: 5.15 h
  Vd: 0.88 L/kg
  clearance: 2.84 mL/min/kg
  half-life: 3.69 h
  fraction unbound: 0.7

## CN(C)C(=O)Oc1cccc([N+](C)(C)C)c1
  MRT: 1.3 h
  Vd: 0.74 L/kg
  clearance: 9.2 mL/min/kg
  half-life: 1.3 h

## Fc1ccc([C@@H]2CCNC[C@H]2COc2ccc3c(c2)OCO3)cc1
  MRT: 17 h
  Vd: 18 L/kg
  clearance: 18 mL/min/kg
  half-life: 13 h
  fraction unbound: 0.06

## CC(NC(=O)C(Cc1c[nH]c2ccccc12)NC(=O)C(N)Cc1cnc[nH]1)C(=O)NC(Cc1c[nH]c2ccccc12)C(=O)NC(Cc1ccccc1)C(=O)NC(CCCCN)C(N)=O (stereo unspecified) (H-HWAWFK-NH2; configuration not given here)
  MRT: 2.45 h
  Vd: 0.42 L/kg
  clearance: 3.1 mL/min/kg
  half-life: 2.46 h

## Cc1cccc(C)c1NC(=O)C1CCCCN1C (stereo unspecified)
  MRT: 2.5 h
  Vd: 0.95 L/kg
  clearance: 6.8 mL/min/kg
  half-life: 2 h
  fraction unbound: 0.3

## C[C@@H](Cc1ccccc1)NC(=O)C(N)CCCCN (stereo partly specified)
  MRT: 0.6 h
  Vd: 0.6 L/kg
  clearance: 17 mL/min/kg
  half-life: 1.2 h

## CC[N+](CC)(CC)CCOc1cccc(OCC[N+](CC)(CC)CC)c1OCC[N+](CC)(CC)CC
  MRT: 2.98 h
  Vd: 0.27 L/kg
  clearance: 1.51 mL/min/kg
  half-life: 2.52 h
